Experimental data published in US9566262B2, “Itch suppression by fucoxanthin” (THE RITSUMEIKAN TRUST, priority 2015, dated 2017).

What was measured:
[1] = tested on: bone marrow-derived mast cells (BMMCs); experiment: Granule formation in BMMCs, tryptase immunostaining; type: cell-based, mice; conditions: 10 μM, vs control-treated cells
Description: Mature mast cells were prepared in the same manner as described in Example 5. The BMMCs obtained were mounted on a glass slide and heat-fixed. The analysis of the preparation was performed according to the method described in Kosaka, T., Fukui, R., Matsui, M. et al. (2014) “RAGE, Receptor of Advanced Glycation Endoproducts, Negatively Regulates Chondrocytes Differentiation.” PLoS ONE 9(10): e108819. Briefly, the cells were reacted with a mouse anti-mast cell tryptase antibody (AB2378, Abcam, Tokyo, Japan) and then reacted with an FITC-conjugated anti-mouse IgG (Santa Cruz Biotechnology, Inc.) and 1 μg/mL DAPI (4′,6-diamino-2-phenylindole dihydrochloride). The fluorescent image was analyzed by EVOS® FL Cell Imaging System (Life Technologies Corp).
To confirm where the effect of fucoxanthin on granule formation in mast cells is specific rather than common to carotenoids, we compared granule formation between fucoxanthin-treated and astaxanthin-treated BMMCs by immunostaining of tryptase. The immunostaining assay was performed in the same manner as described in Example 6.

[2] = tested on: GATA-luc; experiment: Luciferase reporter assay in HEK293 cells; type: cell-based; conditions: HEK293, treated 3 hours after transfection for 48 hours, vs DMSO (fucoxanthin 0.1, 1, 10 μM)
Description: The plasmids pGL3-Cebpα promoter-luc and pGL3-Mitf1 promoter-luc were provided by Dr. Hua Huang (University of Colorado school, Denver, USA). The plasmid NF-κB-luc was purchased from Agilent Technologies (Santa Clara, Calif.). The GATA-responsive reporter vector was provided by Dr. Ishijima (Takasaki University of Health and welfare, Gunma, Japan). Three GATA motifs from mouse α-1 globulin gene (5′-TGATAA-3′) were tandemly inserted into Sma I site of pRBGP3. HDC promoter was provided by Dr. Ootsu (Tohoku University school of Medicine, Sendai, Japan) and cloned into Kpn I-Hind III site of pGL4.10 (Hdc promoter-luc). The reporter assay was performed according to the method described in Kanatani, N. et al. Briefly, HEK293 cells were transfected with each of the luciferase constructs (0.2 μg) or pRL-CMV (Promega, Madison, Wis.) (0.001 μg). At 3 hours after transfection, the cells were treated with fucoxanthin (0.1 μM, 1 μM or 10 μM) or DMSO for 48 hours and reporter assay was performed using Dual-Luciferase® Reporter Assay System (Promega). Luciferase activity was measured using luminometer model TD20/20n (Turner BioSystems, Sunnyvale, Calif.) and normalized to Renilla luciferase activity expressed by CMV promoter.
GATA-reporter assay was performed using HEK293 cells expressing GATA-luc prepared in Example 8, in the same manner as described in Example 8 except using various carotenoids (fucoxanthin, astaxanthin, lycopene, β-carotene or retinoic acid) in place of fucoxanthin.

[3] = tested on: NC/Nga mice; experiment: Serum IgE content by ELISA in NC/Nga mice; type: in vivo; conditions: topical application for 5 weeks, PiCl-sensitized, vs Vaseline
Description: (§1) NC/Nga mice (5 weeks old, female) were purchased from Japan SLC, Inc. […] On day 12, day 19, day 26 and day 33 after starting application of Vaseline or fucoxanthin, 0.8% picryl chloride (PiCl) was further applied to the back skin of the mice. The behaviors of the mice were observed by video monitoring. On day 34 after starting application of Vaseline or fucoxanthin, bromodeoxyuridine (BrdU, Nacalai Tesque) (0.[…] weight) was intraperitoneally administered to the mice. At 5 weeks after starting application of Vaseline or fucoxanthin, the time each mouse spent for scratching behavior in 10 minutes was measured by video monitoring. Then, the mice were sacrificed and the auricular lymph node, blood and skin were obtained. Serum IgE content was determined by enzyme-linked immunosorbent assay (ELISA) using Mouse IgE Assay Kit (Morinaga Institute of Biological Science, Inc.). […] BrdU uptake was determined by ELISA using Cell Proliferation ELISA, BrdU (Colorimetric) (Roche Diagnostics K.K.). […] Also, serum IgE levels and swelling of the auricular lymph nodes of the mice were determined in the same manner as described in Example 2.

[4] = tested on: NC/Nga mice; experiment: Swelling (length) of the auricular lymph node in NC/Nga mice; type: in vivo; conditions: topical application for 5 weeks, PiCl-sensitized, vs Vaseline
Description: as §1

[5] = tested on: NC/Nga mice; experiment: Clinical symptoms of dermatitis in PiCl-sensitized NC/Nga mice; type: in vivo; conditions: topical application plus PiCl, at 5 weeks
Description: Next, we examined the effects of fucoxanthin and astaxanthin on clinical symptoms of dermatitis in NC/Nga mice. In the same manner as described in Example 2, fucoxanthin or astaxanthin and PiCl were applied to NC/Nga mice. […] In the same manner as described in Example 2, Vaseline, fucoxanthin or tacrolimus and PiCl were applied to NC/Nga mice. […] Also, serum IgE levels and swelling of the auricular lymph nodes of the mice were determined in the same manner as described in Example 2.

[6] = tested on: NC/Nga mice; experiment: Transdermal water loss (TEWL) in the skin of NC/Nga mice; type: in vivo; conditions: topical application plus PiCl, at 5 weeks, vs Vaseline
Description: Transdermal water loss (TEWL) in the skin of the mice treated with fucoxanthin was also measured and compared with that in the skin of the mice treated with tacrolimus.

## CC1=C(/C=C/C(C)=C/C=C/C(C)=C/C=C/C=C(C)/C=C/C=C(C)/C=C/C2=C(C)C(=O)[C@@H](O)CC2(C)C)C(C)(C)C[C@H](O)C1=O [astaxanthin, reference compound]
[1]
  granule formation (tryptase-positive cells / immunoreactivity against tryptase): not significantly reduced
[2]
  GATA-luc expression: not downregulated

## CC(C)=CCC/C(C)=C/C=C/C(C)=C/C=C/C(C)=C/C=C/C=C(C)/C=C/C=C(C)/C=C/C=C(\C)CCC=C(C)C [lycopene]
[2]
  GATA-luc expression: not downregulated

## C=CC[C@@H]1/C=C(\C)C[C@H](C)C[C@H](OC)[C@H]2O[C@@](O)(C(=O)C(=O)N3CCCC[C@H]3C(=O)O[C@H](/C(C)=C/[C@@H]3CC[C@@H](O)[C@H](OC)C3)[C@H](C)[C@@H](O)CC1=O)[C@H](C)C[C@@H]2OC [tacrolimus, reference compound]
[3]
  serum IgE level: neither ear swelling (FIG. 9A) nor serum IgE level (FIG. 9B) were affected
[4]
  swelling of the auricular lymph node (ear swelling): neither ear swelling (FIG. 9A) nor serum IgE level (FIG. 9B) were affected
[5]
  clinical symptoms of dermatitis (AD symptoms): protected AD symptoms partially
[6]
  transdermal water loss (TEWL): did not affect TEWL

## CC1=C(/C=C/C(C)=C/C=C/C(C)=C/C=C/C=C(C)/C=C/C=C(C)/C=C/C2=C(C)CCCC2(C)C)C(C)(C)CCC1 [β-carotene]
[2]
  GATA-luc expression: rather upregulated
